Data on 60 sequences can be found in the OligoGym collection.

The data set deals with IRF4. Particulars: ASO.

Several values for one entry are separate records, joined by “and”; a condition that tells them apart may be missing. Equal values may be shown once. After the bases stand the sugars from the 5' end (letter, count) and the backbone: PS all phosphorothioate, else s phosphorothioate and o phosphodiester by linkage. Methylation of C is not given here. e = 2'-O-(2-methoxyethyl) (MOE); k = constrained ethyl (cEt); d = 2'-deoxy (DNA)

With “GATGTGATAGCTGAGC (sugars kddddddddddkekek, PS)”, the target mRNA inhibition (MM.1R, 1 µM) worked out at 50%.
For GTAAGAGGGCAGTCAA (sugars k3 d10 k3, PS), the target mRNA inhibition (SK-MEL-28, 4 µM) stood at 44%.
Still for that read-out and setting: as for CATCACTCTAGTCAGT (sugars k3 d10 k3, PS), the figure is 59%.
With “AGGCACATCAATGTTT (sugars kkdddddddddekeke, PS)”, the target mRNA inhibition (MM.1R, 1 µM) was 42% and 35%.
As to GTGTGATTAATTCTCC (sugars k3 d10 k3, PS), the target mRNA inhibition is -15% (MM.1R, 0.0625 µM); 8% (MM.1R, 0.25 µM); 64% and 44% (MM.1R, 1 µM); 87% (MM.1R, 4 µM).
As for GGCCATTCGAGGTGAT (sugars k3 d10 k3, PS), the target mRNA inhibition (MM.1R, 1 µM) came out at 1%.
Consider TTAAAGAGCGCATTTC (sugars k3 d10 k3, PS), for which, where the note is “SK-MEL-28, 4 µM”, the target mRNA inhibition is 41%.
“AGGCACATCAATGTTT (sugars kkdddddddddkekek, PS)”: the target mRNA inhibition (MM.1R, 1 µM) is 16% and 19%.
As to ATGAGATATTCCTCTC (sugars k3 d10 k3, PS), the target mRNA inhibition (SK-MEL-28, 4 µM) is 32%.
For “TACTGCTTGAGGTTTT (sugars kkdddddddddekeke, PS)”, the target mRNA inhibition (MM.1R, 1 µM) turned out to be 18%.
For ACGCAAGGCTCGGAGC (sugars k3 d10 k3, PS), the target mRNA inhibition (SK-MEL-28, 4 µM) was 21%.
Consider “ACTTTTAGAGAGGAGA (sugars e1 k2 d9 k2 e2, PS)”, for which the target mRNA inhibition (MM.1R, 1 µM) turned out to be 28%.
On to GTACACTTTGTACGGG (sugars k3 d10 k3, PS), for which, for the setting “SK-MEL-28, 4 µM”, the target mRNA inhibition is 64%.
Still for that read-out and setting: then GCTGAGATAGGAAGCA (sugars k3 d10 k3, PS), with 19%.
“TGGTTGGCTGGTCTTT (sugars kkdddddddddkekek, PS)”: the target mRNA inhibition (MM.1R, 1 µM) turned out to be 44%.
Take TCAAAAGGTAGTAGAC (sugars k3 d10 k3, PS): under “SK-MEL-28, 4 µM”, the target mRNA inhibition is 29%.
As for “GACAGTGACTTGCATC (sugars kkdddddddddekeke, PS)”, the target mRNA inhibition (MM.1R, 1 µM) was determined as 30%.
Take CGCAAGTCTACAGCCC (sugars k3 d10 k3, PS): the target mRNA inhibition is 0% (MM.1R, 0.0625 µM); -7% (MM.1R, 0.074 µM); -9% (MM.1R, 0.222 µM); 1% (MM.1R, 0.25 µM); -9% (MM.1R, 0.666 µM); 6% (MM.1R, 1 µM). For the same sequence, the target mRNA inhibition by setting is: (MM.1R, 2 µM) 8%; (MM.1R, 4 µM) 12%; (SK-MEL-28, 4 µM) 59%.
On to CAATAATCTCCCAGCA (sugars k3 d10 k3, PS), for which the target mRNA inhibition (SK-MEL-28, 4 µM) was determined as 37%.
Turning to CATTACTTAGACATTA (sugars k3 d10 k3, PS), the target mRNA inhibition (SK-MEL-28, 4 µM) is 19%.
The same measure, in the same setting: then GAGGAAGCATAGAACA (sugars k3 d10 k3, PS), with 18%.
As to CCAAACCTTAAGCTAT (sugars k3 d10 k3, PS), the target mRNA inhibition (MM.1R, 1 µM) is 18% and 34%.
On to CCTTCAGATTTACACC (sugars k3 d10 k3, PS), for which the target mRNA inhibition (MM.1R, 1 µM) was -9%.
Still for that read-out and setting: as for TCATCCGAAAAGACTG (sugars k3 d10 k3, PS), the figure is 16%.
In the case of GACTTAACCCACATCA (sugars k3 d10 k3, PS), the target mRNA inhibition (SK-MEL-28, 4 µM) is -166%.
Still for that read-out and setting: as for ACCAACGACAGCATAG (sugars k3 d10 k3, PS), the figure is 67%; as for AGCATTTTATCATCCG (sugars k3 d10 k3, PS), 81%; as for TAGATAACATGAGAGT (sugars k3 d10 k3, PS), 50%.
GTCTGGCTAGCAGAGG (sugars k3 d10 k3, PS): the target mRNA inhibition is, setting by setting: (SK-MEL-28, 0.185 µM) 10%; (SK-MEL-28, 4 µM) 66%; (SK-MEL-28, 5 µM) 68%; (SK-MEL-28, 15 µM) 89%.
With TAATGTAGGGATACAG (sugars k3 d10 k3, PS), the target mRNA inhibition (SK-MEL-28, 4 µM) was found to be 78%.
As to GGACACCACCTCGAGG (sugars k3 d10 k3, PS), under “MM.1R, 1 µM”, the target mRNA inhibition was 1%.
Turning to CCTTAACCAATCCCAA (sugars k3 d10 k3, PS), the target mRNA inhibition (SK-MEL-28, 4 µM) amounted to 43%.
Turning to GTCTCTACCTACTCCA (sugars k3 d10 k3, PS), for the setting “SK-MEL-28, 4 µM”, the target mRNA inhibition came out at 41%.
Same read-out and setting: then GATCATAAAGGACAAT (sugars k3 d10 k3, PS), with 30%; and TCCACTTTATCAAGAC (sugars k3 d10 k3, PS), with 65%.
The same measure, in the same setting: then AGCAAACCCTGCACTC (sugars k3 d10 k3, PS), with 8%.
Same read-out and setting: as for TGTTAAGTCCCATCTG (sugars k3 d10 k3, PS), the figure is 25%.
Take “CAGTTGTAAATGAGTC (sugars k3 d9 k3 e1, PS)”: the target mRNA inhibition (MM.1R, 0.074 µM) is 26%; the target mRNA inhibition (MM.1R, 0.222 µM) amounted to 42%; the target mRNA inhibition (MM.1R, 0.666 µM) amounted to 65%; the target mRNA inhibition (MM.1R, 1 µM) was 68%; the target mRNA inhibition (MM.1R, 2 µM) came to 84%.
As to “AGTGATGTCAGGTTTT (sugars kdddddddddkekeke, PS)”, under “MM.1R, 1 µM”, the target mRNA inhibition amounted to 40%.
As to AGTCAGTGTCAATACT (sugars k3 d10 k3, PS), the target mRNA inhibition (SK-MEL-28, 4 µM) worked out at 47%.
The same measure, in the same setting: then AGACATACCTACAAGC (sugars k3 d10 k3, PS), with 50%; and TCGCAGGAGCGCGGAG (sugars k3 d10 k3, PS), with -37%.
As to GTATTTTTCCGTTCCT (sugars k3 d10 k3, PS), the target mRNA inhibition reads like this: (H929, 0.04 µM) 33% and 14%; (KMS11, 0.2 µM) 82% and 96%; (MM.1R, 0.0625 µM) 34%; (MM.1R, 0.25 µM) 57%; (MM.1R, 1 µM) 84% and 74%; (MM.1R, 4 µM) 93%.
As to CTGGGCCTTGCCAGTG (sugars k3 d10 k3, PS), the target mRNA inhibition (SK-MEL-28, 4 µM) was -14%.
Same read-out and setting: as for GACCAGCTTTTTCAAA (sugars k3 d10 k3, PS), the figure is 38%; as for TCAATGATGGCAGTCT (sugars k3 d10 k3, PS), 54%.
The same measure, in the same setting: as for TAAGAGGGCAGTCAAT (sugars k3 d10 k3, PS), the figure is 17%; as for ATCGAGCGGTGAAACT (sugars k3 d10 k3, PS), 29%.
For the sequence “GACAGTGACTTGCATC (sugars k2 d9 e3 k2, PS)”, the target mRNA inhibition (MM.1R, 1 µM) was found to be 24%.
Still for that read-out and setting: as for “ATGTGATAGCTGAGCT (sugars kkddddddddddkeke, PS)”, the figure is 4%.
Take ACGCCTTAATGTTCAG (sugars k3 d10 k3, PS): the target mRNA inhibition (SK-MEL-28, 4 µM) was 77%.
Same read-out and setting: as for AATGCATAACACGGTG (sugars k3 d10 k3, PS), the figure is 49%; as for AGGTAAATCTTCACTG (sugars k3 d10 k3, PS), 54%.
As to “AATGTGTATTACTCTT (sugars kddddddddddkekek, PS)”, the target mRNA inhibition (MM.1R, 1 µM) is 24% and 29%.
Same read-out and setting: then “TACTGTTACCGATGCT (sugars kddddddddddkekek, PS)”, with 10% and 2%; and “AGTGATGTCAGGTTTT (sugars kkddddddddddkeke, PS)”, with 32%.
For GAAATGGAGCATCCGC (sugars k3 d10 k3, PS), the target mRNA inhibition (SK-MEL-28, 4 µM) is 32%.
For the sequence TAACAGATAACGAGGT (sugars k3 d10 k3, PS), the target mRNA inhibition (MM.1R, 1 µM) was found to be 12%.
For ACCTTTTTTGGCTCCC (sugars k3 d10 k3, PS), the target mRNA inhibition (SK-MEL-28, 4 µM) amounted to 21%.
For the sequence “ACTGCTTGAGGTTTTC (sugars k3 d9 k3 e1, PS)”, the target mRNA inhibition (MM.1R, 1 µM) was determined as 52%.
